Columns and labels:
Assay type in all cases: cell-based, Mycosphaerella graminicola
[1] = test system: M. graminicola WT (IPO323); test: microbe, parasite or virus in culture
Experimental: (§1) To explore the sensitivity profiles conferred by amino acid substitutions at the cellular and mitochondrial level, we determined sensitivity towards 4 different compounds for 26 of the identified substitution types both in vivo using liquid culture growth (AE media) and in vitro using purified mitochondria and the succinate: Q0/DCPIP activity test (Table 3). […] Resistance factors (RF) were determined as the ratio IC50mutant/IC50WT. […] Qp site mutations are well known to influence SDH enzyme activity and stability upon catalysis, [13], [38], [41].
(§2) Conidial cells were collected from 4 day old V8 agar plates (cultured at 18°C in the dark) using liquid AE and a cell spreader. Cell density was determined and cells re-suspended to a concentration of 5×10^5 cells ml^−1 in AE media. Sterile 96 wells microtiter plates with lids (Costar) were inoculated with 198 µl of this cell suspension (10^5 cells per well) and 2 µl of inhibitor (100× in DMSO). Final inhibitor concentrations were between 0.95 nM and 1 mM with uniform 4× dilution factor steps (11 inhibitor concentrations+1 DMSO control). Plates were incubated for 6 days at 19°C in the dark before cells were re-suspended and measured for growth (OD600 nm). IC50 values were determined by non linear curve fitting on the basis of measured OD values versus log inhibitor concentrations (GraphPad Prism 5.0 software).

[2] = test system: M. graminicola strain Cbx1 (SDHB_I269V); test: in vivo sensitivity, liquid culture growth (AE media); conditions: B_I269V, ratio IC50mutant/IC50WT
Experimental: as §1, §2

[3] = test system: M. graminicola strain Cbx106 (SDHB_N225H); test: as above; conditions: B_N225H, ratio IC50mutant/IC50WT
Experimental: as §1, §2

[4] = test system: M. graminicola strain Cbx28 (SDHB_H267Y); test: as above; conditions: B_H267Y, strain Cbx28; ratio IC50mutant/IC50WT
Experimental: as §1, §2

[5] = test system: M. graminicola strain Cbx76 (SDHC_H145R); test: as above; conditions: C_H145R, ratio IC50mutant/IC50WT
Experimental: as §1, §2

[6] = test system: M. graminicola strain Flu33 (SDHB_N271K); test: as above; conditions: B_N271K, ratio IC50mutant/IC50WT
Experimental: as §1, §2

CC(C)C1C2CCC1c1c(NC(=O)c3cn(C)nc3C(F)F)cccc12 (stereo not shown) [Isopyrazam]
Resistance Factors (RFs) in vivo ([1]; None, IPO323, ratio IC50mutant/IC50WT): 1 | IC50 ([1]; Zymoseptoria tritici, WT (IPO323), liquid culture growth, ±S.E. (triplicate), read-out: IC50 in vivo): 0.055 ± 0.002 µM | Resistance Factors (RFs) in vivo [2]: 5.0 | Resistance Factors (RFs) in vivo [3]: 13.6 | Resistance Factors (RFs) in vivo [4]: 16.1 | Resistance Factors (RFs) in vivo [5]: 27.6 | Resistance Factors (RFs) in vivo [6]: 5.7

— publication PMC3334918, “Mutagenesis and Functional Studies with Succinate Dehydrogenase Inhibitors in the Wheat Pathogen Mycosphaerella graminicola” (PLoS ONE, 2012)
